Experimental findings from PubChem BioAssay (NCI) are described below.

Some test systems named below: T-47D breast; SF-539 CNS; 786-0 renal; OVCAR-4 ovarian; HT29 colon; M14 melanoma; LOX IMVI melanoma; NCI/ADR-RES ovarian; SK-MEL-2 melanoma; RXF 393 renal.
What all share (test): growth of human tumour cells (NCI), 48 h

The structures appear in SMILES notation.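 Values below derive from 48-hour exposures of cells grown in 96-well plates, with endpoints linearly interpolated between the two concentrations bracketing the appropriate inhibition level. TGI is the concentration that stops growth completely.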

Consider `CC(=O)NC1C(OCc2ccccc2)OC(CO)C(O)C1OCC(=O)N[C@@H](C)C(=O)N[C@H](CCC(=O)NCCNc1ccc([N+](=O)[O-])c2[nH]c3ccccc3c(=O)c12)C(N)=O` (some centres not stated), for which the TGI in the assay on T-47D breast was over 100 µM; in the assay with SF-539 CNS it was over 100 µM; in the assay on 786-0 renal, 83.2 µM; in the assay with OVCAR-4 ovarian it was 67.9 µM; in the assay with HT29 colon it was 85.8 µM; in the assay with M14 melanoma, over 100 µM. Also, the TGI is 99.5 µM in the assay on LOX IMVI melanoma and 59.7 µM in the assay on NCI/ADR-RES ovarian.

`O=C1/C(=C/c2ccccc2)CCCc2ccccc21`: the TGI in the assay with SK-MEL-2 melanoma was 29.9 µM; in the assay on SF-539 CNS it was 32.1 µM; in the assay with 786-0 renal, 31.3 µM; in the assay with OVCAR-4 ovarian, 32 µM; in the assay with HT29 colon, 36 µM; in the assay on M14 melanoma, 41.4 µM. Besides, the TGI in the assay with LOX IMVI melanoma amounted to 34.9 µM; in the assay on NCI/ADR-RES ovarian, 40.5 µM.

For the molecule `COC(=O)CNC(=O)CCC(C)[C@H]1CCC2C3C(C[C@H](OC(C)=O)[C@@]21C)[C@@]1(C)CCC2(C[C@H]1C[C@H]3OC(C)=O)OOC1(CCCCC1)OO2` (some centres not stated), the TGI with SK-MEL-2 melanoma was 6.49 µM; in the assay on T-47D breast, 5.03 µM; in the assay with SF-539 CNS, 3.75 µM; in the assay on 786-0 renal, 3.48 µM; in the assay with OVCAR-4 ovarian, 3.66 µM; in the assay with RXF 393 renal, 4.23 µM. Moreover, the TGI with HT29 colon stood at 7.44 µM; with M14 melanoma it was 8.28 µM; in the assay on NCI/ADR-RES ovarian it was 4.7 µM.

In the case of `COc1ccc(/C(Cl)=C(\C=O)c2ccc(Cl)cc2)cc1OC`, the TGI came to 57.2 µM in the assay on SK-MEL-2 melanoma; 73.6 µM in the assay on OVCAR-4 ovarian; 20.7 µM with RXF 393 renal; 20.8 µM with HT29 colon; 97.3 µM with M14 melanoma; 14.5 µM with LOX IMVI melanoma.

On to `C/C(O[Si](C(C)C)(C(C)C)C(C)C)=C(\C)C(=O)N(C)c1ccccc1Cl`, for which the TGI in the assay with T-47D breast, in the assay on SF-539 CNS, with 786-0 renal, in the assay with OVCAR-4 ovarian, in the assay on RXF 393 renal and in the assay on HT29 colon was over 100 µM throughout. For the same molecule, the TGI in the assay on M14 melanoma, in the assay on LOX IMVI melanoma and in the assay with NCI/ADR-RES ovarian was over 100 µM each time.

Regarding `C#CC(O)/C=C/C(O)CCCC(O)CC#CC(O)C#CCCCCC(O)/C=C/CCCC(O)/C=C/CCCCCCCCCCCCCC(O)C(O)C#CC(=O)O` (configuration not stated), the TGI with SK-MEL-2 melanoma, in the assay on T-47D breast, with 786-0 renal, with OVCAR-4 ovarian, in the assay with RXF 393 renal and with HT29 colon was over 25 µM in each case. The TGI in the assay with M14 melanoma, in the assay on LOX IMVI melanoma and in the assay on NCI/ADR-RES ovarian was over 25 µM in each case.

Take `C#C[C@]1(O)CC[C@H]2[C@@H]3CCC4=C/C(=N/OC(=O)c5cccc6c(=O)c7ccccc7[nH]c56)CCC4[C@H]3CC[C@@]21CC` (some centres not stated): the TGI in the assay with SK-MEL-2 melanoma is over 100 µM; with T-47D breast it was over 75.9 µM; with 786-0 renal it was over 39.6 µM; in the assay on OVCAR-4 ovarian it was over 100 µM; with RXF 393 renal, 12.6 µM; with HT29 colon, over 50.7 µM. In addition, the TGI in the assay on M14 melanoma was over 100 µM; in the assay on LOX IMVI melanoma, over 56.6 µM; with NCI/ADR-RES ovarian it was over 100 µM.

Take `O=C1C(Cl)=C(NCCF)C(=O)c2ncccc21`: the TGI in the assay on SK-MEL-2 melanoma is 4.23 µM; in the assay on T-47D breast, 4.25 µM; in the assay on SF-539 CNS it was 3.23 µM; in the assay with 786-0 renal it was 3.21 µM; in the assay with RXF 393 renal, 3.24 µM; in the assay on HT29 colon, 7.29 µM. The TGI was 3.15 µM with M14 melanoma and 2.26 µM in the assay with LOX IMVI melanoma.

Consider `Cc1cc(N(CCC#N)CCC#N)ccc1/C(N=Nc1ccc([N+](=O)[O-])cc1)=N\NC(=O)c1ccccc1`, for which the TGI in the assay on SK-MEL-2 melanoma is over 100 µM; in the assay with T-47D breast it was 97.1 µM; in the assay on SF-539 CNS it was 92.9 µM; with 786-0 renal, over 100 µM; with OVCAR-4 ovarian it was over 100 µM; with RXF 393 renal, over 100 µM. Moreover, the TGI with HT29 colon is 71.4 µM; in the assay with M14 melanoma, over 100 µM; in the assay with NCI/ADR-RES ovarian, over 100 µM.

On to `O=c1[nH]c(=O)n([C@@H]2O[C@H](CO)[C@@H](O)[C@@H]2F)cc1I`, for which the TGI in the assay with T-47D breast, in the assay with SF-539 CNS, with 786-0 renal, with OVCAR-4 ovarian, in the assay on RXF 393 renal and in the assay with HT29 colon was over 100 µM each time. Further, the TGI with M14 melanoma, with LOX IMVI melanoma and in the assay with NCI/ADR-RES ovarian was over 100 µM each time.

Regarding `CNC(=S)/C(C#N)=C(\N)N1CCCC1`, the TGI in the assay with SK-MEL-2 melanoma, in the assay with T-47D breast, in the assay on SF-539 CNS, in the assay with 786-0 renal, with RXF 393 renal and with HT29 colon was over 100 µM each time. The TGI with NCI/ADR-RES ovarian was over 100 µM.

As to `COc1cc(OC)c(OC)cc1/C=C/c1cc[n+](C)c2ccccc12`, the TGI in the assay on T-47D breast, in the assay on 786-0 renal, in the assay on OVCAR-4 ovarian, in the assay with RXF 393 renal, in the assay on HT29 colon and in the assay on M14 melanoma was over 100 µM throughout. In the assay on NCI/ADR-RES ovarian, this molecule returned a TGI of over 100 µM.

On to `CC12CCC(CC1(Cl)Cl)C2` (configuration not stated), for which the TGI with SK-MEL-2 melanoma, in the assay with T-47D breast, in the assay on 786-0 renal, in the assay on OVCAR-4 ovarian, in the assay on HT29 colon and in the assay with M14 melanoma was over 100 µM each time. The TGI in the assay on LOX IMVI melanoma and with NCI/ADR-RES ovarian was over 100 µM throughout.

Regarding `OC12c3ccccc3C1CCCCCC21OCCCO1` (configuration not stated), the TGI with SK-MEL-2 melanoma, in the assay with SF-539 CNS, with 786-0 renal, in the assay with OVCAR-4 ovarian, with RXF 393 renal and in the assay on HT29 colon was over 100 µM in each case. The TGI in the assay with M14 melanoma and in the assay with LOX IMVI melanoma was over 100 µM throughout.

Turning to `Cc1cc(NS(=O)(=O)c2ccc(Nc3c4ccccc4nc4c(C(=O)NCCO)cccc34)cc2)no1`, the TGI was 74 µM with SK-MEL-2 melanoma; over 100 µM with T-47D breast; over 100 µM in the assay with 786-0 renal; 86.7 µM in the assay with OVCAR-4 ovarian; 78.8 µM with HT29 colon; 70 µM in the assay on M14 melanoma. The TGI in the assay with LOX IMVI melanoma and with NCI/ADR-RES ovarian was over 100 µM throughout.
